Measured values from patent publication US9920012B2, “Indazole guanidine F1F0-ATPase inhibitors and therapeutic uses thereof” (Lycera Corporation, priority 2012, dated 2018).
Counter-ions that a name gives are not always drawn. Like-named read-outs stand apart in the source and are kept apart here.

Columns and labels:
F1F0-ATPase = biological target: T1, F1F0-ATPase (Bos taurus, UniProt P13621); experiment: Inhibition of F1F0-ATPase activity in synthesizing ATP; assay type: biochemical; conditions: inhibition of ATP synthesis; detection limit IC50=16 μM; read-out: ATP Syn IC50
T1 construct: from tissue
Procedure: (§1) Exemplary compounds described in above Examples were tested for activity against F1F0-ATPase by measuring the ability of the compounds to inhibit ATP synthesis. In addition, the compounds were assessed for cytotoxicity in Ramos cells. Inhibition of F1F0-ATPase activity in synthesizing ATP and cytotoxicity in Ramos cells were measured according to the procedures described in K. M. Johnson et al. Chemistry & Biology 2005, 12, 485-496.

Ramos cells = experiment: Cytotoxicity in Ramos cells; assay type: cell-based; conditions: detection limit EC50=16 μM, read-out: Ramos Cell EC50
Procedure: as §1

Structure (SMILES) | IC50 (F1F0-ATPase) | EC50 (Ramos cells) | EC50 (Ramos cells; Homo sapiens)
CC(C)CN/C(=N/C(=O)c1ccc(F)c(F)c1)Nc1n[nH]c2cc(Cl)ccc12 [Compound A-31] | < 5 µM | < 5 µM | 
COC[C@H](C)N/C(=N/C(=O)c1ccc(Cl)cc1)Nc1nn(C)c2cc(C(F)(F)F)ccc12 [Compound A-115] | > 16 µM |  | > 16 µM
COC[C@H](C)N/C(=N/C(=O)c1ccc(Cl)cc1)Nc1n[nH]c2cc(F)ccc12 [Compound A-80] | < 5 µM | < 5 µM | 
O=C(/N=C(/NCCOCCO)Nc1n[nH]c2cc(C(F)(F)F)ccc12)c1ccc(Cl)c(F)c1 [Compound A-22] | > 16 µM | > 16 µM | 
COC[C@H](C)NC(=NC(=O)c1ccc(F)c(F)c1)Nc1nn(C(=O)[C@@H](N)C(C)C)c2cc(C(F)(F)F)ccc12 [Compound 6, N-(((1-((S)-2-Amino-3-methylbutanoyl)-6-(trifluoromethyl)-1H-indazol-3-yl)amino)(((S)-1-methoxypropan-2-yl)amino)methylene)-3,4-difluorobenzamide hydrochloride salt] | 5 to 16 µM |  | > 16 µM
CC(C)(O)CN/C(=N/C(=O)c1ccc(O)cc1)Nc1n[nH]c2cc(F)ccc12 [Compound A-90] | > 16 µM | > 16 µM | 
COC[C@H](C)N/C(=N/C(=O)c1ccc(N2CCOCC2)nc1)Nc1n[nH]c2cc(C(F)(F)F)ccc12 [Compound A-26] | 5 to 16 µM | > 16 µM | 
COC[C@H](C)N/C(=N/C(=O)c1ccc(F)c(F)c1)Nc1n[nH]c2cc(Cl)ccc12 [Compound 1, (S)-N-(((6-Chloro-1H-indazol-3-yl)amino)((1-methoxypropan-2-yl)amino)methylene)-3,4-difluorobenzamide] | < 5 µM |  | < 5 µM
CCOCCN/C(=N/C(=O)c1ccc2nonc2c1)Nc1n[nH]c2cc(F)ccc12 [Compound A-30] | > 16 µM | > 16 µM | 
CCC(C)NC(=NC(=O)c1ccc(Cl)c(F)c1)Nc1n[nH]c2cc(C(F)(F)F)ccc12 (centres unmarked) [Compound A-16] | < 5 µM |  | 5 to 16 µM
CCOCCN/C(=N/C(=O)c1ccc(F)c(F)c1)Nc1n[nH]c2cncc(Cl)c12 [Compound A-44] | > 16 µM | > 16 µM | 
CC(C)(C)N/C(=N/C(=O)c1ccc(F)c(F)c1)Nc1n[nH]c2cncc(F)c12 [Compound A-32] | < 5 µM | 5 to 16 µM | 
COC[C@H](C)N/C(=N/C(=O)c1ccc(F)c(F)c1)Nc1n[nH]c2cncc(F)c12 [Compound A-33] | > 16 µM | > 16 µM | 
CC(C)(C)N/C(=N/C(=O)c1ccc(F)c(F)c1)Nc1n[nH]c2c(F)cccc12 [Compound A-72] | 5 to 16 µM | < 5 µM | 
COC[C@H](C)N/C(=N/C(=O)c1cccc(Cl)c1)Nc1n[nH]c2cc(Cl)ccc12 [Compound A-78] | < 5 µM | < 5 µM | 
CCOCCNC(=NC(=O)c1ccc(F)c(F)c1)Nc1n[nH]c2c(C(F)(F)F)cccc12 [Compound A-60] | 5 to 16 µM |  | > 16 µM
CC(C)(C)CNC(=NC(=O)c1ccc2nonc2c1)Nc1n[nH]c2cc(F)ccc12 [Compound A-28] | 5 to 16 µM |  | > 16 µM
CC(C)CN/C(=N/C(=O)c1ccc(F)c(F)c1)Nc1n[nH]c2ccc(C(F)(F)F)cc12 [Compound A-51] | < 5 µM | < 5 µM | 
CC(C)CN/C(=N/C(=O)c1cccc(O)c1)Nc1n[nH]c2cc(F)ccc12 [Compound A-95] | < 5 µM | 5 to 16 µM | 
CC(C)N/C(=N/C(=O)c1ccc(Cl)c(F)c1)Nc1n[nH]c2cc(C(F)(F)F)ccc12 [Compound A-18] | < 5 µM | > 16 µM | 

Structure (SMILES) | IC50 (F1F0-ATPase) | EC50 (Ramos cells) | EC50 (Ramos cells; Homo sapiens)
CCOCCNC(=NC(=O)c1ccc(F)c(F)c1)Nc1n[nH]c2cc(Cl)c(F)cc12 [Compound A-102] | < 5 µM | < 5 µM | 
O=C(/N=C(\Nc1n[nH]c2cc(C(F)(F)F)ccc12)NC1CCC1)c1ccc(N2CCOCC2)nc1 [Compound A-25] | < 5 µM |  | 5 to 16 µM
CC(C)CN/C(=N/C(=O)c1ccc2nonc2c1)Nc1n[nH]c2cc(F)ccc12 [Compound A-29] | < 5 µM | > 16 µM | 
CCOCCN/C(=N/C(=O)c1ccc(Cl)cc1)Nc1n[nH]c2cc(Cl)ccc12 [Compound A-63] | < 5 µM | 5 to 16 µM | 
CC(C)CN/C(=N/C(=O)c1ccc(F)c(F)c1)Nc1n[nH]c2ccccc12 [Compound A-35] | > 16 µM | > 16 µM | 
CCOCCNC(=NC(=O)c1cccc(Cl)c1)Nc1n[nH]c2cc(Cl)c(F)cc12 [Compound A-106] | < 5 µM |  | < 5 µM
O=C(/N=C(\Nc1n[nH]c2cc(C(F)(F)F)ccc12)NC1CCCC1)c1ccc(Cl)c(F)c1 [Compound A-19] | < 5 µM |  | < 5 µM
CC(C)CN/C(=N/C(=O)c1ccc(F)c(F)c1)Nc1n[nH]c2c(O)ccc(F)c12 [Compound A-56] | < 5 µM | < 5 µM | 
COC[C@H](C)N/C(=N/C(=O)c1ccc(F)c(F)c1)Nc1n[nH]c2cc(C(F)(F)F)ccc12 [Compound 3, (S)-3,4-Difluoro-N-(((1-methoxypropan-2-yl)amino)((6-(trifluoromethyl)-1H-indazol-3-yl)amino)methylene)benzamide] | < 5 µM |  | < 5 µM
CC(C)(C)CNC(=NC(=O)c1ccc(F)c(F)c1)Nc1n[nH]c2cccnc12 [Compound A-47] | > 16 µM |  | > 16 µM
CC(C)(O)CN/C(=N/C(=O)c1cccc(Cl)c1)Nc1n[nH]c2cc(F)ccc12 [Compound A-87] | > 16 µM | > 16 µM | 
CC(C)(C)N/C(=N/C(=O)c1ccc(F)c(F)c1)Nc1n[nH]c2cccc(F)c12 [Compound A-5] | < 5 µM | < 5 µM | 
CCOCCN/C(=N/C(=O)c1ccc(F)c(F)c1)Nc1n[nH]c2cc(F)ccc12 [Compound A-81] | < 5 µM | < 5 µM | 
CCOCCN/C(=N/C(=O)c1cccc(Cl)c1)Nc1n[nH]c2cc(F)ccc12 [Compound A-86] | > 16 µM | 5 to 16 µM | 
CC(C)(C)N/C(=N/C(=O)c1ccc(F)c(F)c1)Nc1n[nH]c2ncccc12 [Compound A-69] | > 16 µM | > 16 µM | 
COC[C@H](C)NC(=NC(=O)c1cccc(Cl)c1)Nc1n[nH]c2cc(Cl)c(F)cc12 [Compound A-107] | < 5 µM | < 5 µM | 
CC(C)(C)N/C(=N/C(=O)c1ccc(F)c(F)c1)Nc1n[nH]c2ccc(F)cc12 [Compound A-3] | < 5 µM | 5 to 16 µM | 
CC(C)(C)CN/C(=N/C(=O)c1ccc(F)c(F)c1)Nc1n[nH]c2cncc(Cl)c12 [Compound A-42] | < 5 µM | 5 to 16 µM | 
CCOCCN/C(=N/C(=O)c1ccc(F)c(F)c1)Nc1n[nH]c2cc(C(F)(F)F)ccc12 [Compound A-12] | < 5 µM | < 5 µM | 
CC(C)(C)NC(=NC(=O)c1cccc(Cl)c1)Nc1n[nH]c2cc(Cl)c(F)cc12 [Compound A-104] | < 5 µM | < 5 µM | 

Structure (SMILES) | IC50 (F1F0-ATPase) | EC50 (Ramos cells) | EC50 (Ramos cells; Homo sapiens)
CCOCCNC(=NC(=O)c1ccc(F)c(F)c1)Nc1n[nH]c2ccc(C(F)(F)F)cc12 [Compound A-54] | < 5 µM |  | > 16 µM
CC(C)CN/C(=N/C(=O)c1ccc(F)c(F)c1)Nc1n[nH]c2ncccc12 [Compound A-70] | > 16 µM | > 16 µM | 
COCC(C)NC(=NC(=O)c1ccc(F)c(F)c1)Nc1n[nH]c2c(Cl)cccc12 (centres unmarked) [Compound A-84] | 5 to 16 µM |  | > 16 µM
CC(C)(O)CN/C(=N/C(=O)c1cccc(O)c1)Nc1n[nH]c2cc(F)ccc12 [Compound A-94] | > 16 µM | 5 to 16 µM | 
CC(C)CNC(=NC(=O)c1cccc(Cl)c1)Nc1n[nH]c2cc(Cl)c(F)cc12 [Compound A-105] | < 5 µM | 5 to 16 µM | 
CC(C)CNC(=NC(=O)c1ccc(O)cc1)Nc1n[nH]c2cc(Cl)ccc12 [Compound A-108] | < 5 µM | 5 to 16 µM | 
CC1(CNC(=NC(=O)c2ccc(F)c(F)c2)Nc2n[nH]c3ccc(C(F)(F)F)cc23)COC1 [Compound A-55] | > 16 µM |  | > 16 µM
CC(C)CNC(=NC(=O)c1ccc(F)c(F)c1)Nc1n[nH]c2c(C(F)(F)F)cccc12 [Compound A-58] | 5 to 16 µM |  | 5 to 16 µM
CC(C)(C)CNC(=NC(=O)c1ccc(F)c(F)c1)Nc1n[nH]c2ccccc12 [Compound A-36] | < 5 µM |  | < 5 µM
COC[C@H](C)N/C(=N/C(=O)c1ccc(O)cc1)Nc1n[nH]c2cc(F)ccc12 [Compound A-89] | 5 to 16 µM | 5 to 16 µM | 
CC(C)CNC(=NC(=O)c1ccc(O)cc1)Nc1n[nH]c2cc(F)ccc12 [Compound A-109] | 5 to 16 µM | 5 to 16 µM | 
CC(C)CN/C(=N/C(=O)c1ccc(F)c(F)c1)Nc1n[nH]c2cccnc12 [Compound A-46] | > 16 µM | > 16 µM | 
CCOCCNC(=NC(=O)c1cccc(Cl)c1)Nc1n[nH]c2cc(F)ccc12 [Compound A-99] | < 5 µM | 5 to 16 µM | 
CC(C)CNC(=NC(=O)c1cccc(Cl)c1)Nc1n[nH]c2cc(F)ccc12 [Compound A-98] | < 5 µM | < 5 µM | 
COC[C@H](C)NC(=NC(=O)c1ccc(F)c(F)c1)Nc1n[nH]c2cc(Cl)c(F)cc12 [Compound A-103] | < 5 µM | < 5 µM | 
CC(C)CN/C(=N/C(=O)c1ccc(O)cc1)Nc1n[nH]c2cc(F)ccc12 [Compound A-91] | 5 to 16 µM | > 16 µM | 
CCOCCN/C(=N/C(=O)c1ccc(F)c(F)c1)Nc1n[nH]c2cccnc12 [Compound A-49] | > 16 µM | > 16 µM | 
CC(C)(C)CNC(=NC(=O)c1ccc(N2CCOCC2)nc1)Nc1n[nH]c2cc(C(F)(F)F)ccc12 [Compound A-27] | < 5 µM |  | > 16 µM
